From patent US20240287046A1, “COMPOUNDS AND RADIOLIGANDS FOR TARGETING NEUROTENSIN RECEPTOR AND USES THEREOF” (Full-Life Technologies HK Limited, priority 2022, published 2024)

Experiments:
[1] = tested on: ASPC-1 tumor-bearing mice; assay: SPECT/CT imaging of ^177Lu-labeled complexes; format: in vivo; conditions: over 72 hours
Description: ASPC-1 tumor-bearing mice were IV-injected with about 120 μCi of ^177Lu-labeled complexes, then anesthetized under 2% isoflurane/oxygen gas and placed on the scanner. SPECT/CT images were acquired in three bed positions for 30 min using a MILabs SPECT scanner. Whole-body SPECT images were acquired at 1 h, 4 h, 24 and 72 h after injecting the radiotracers.

[2] = Stability of ^177Lu labeled complexes in PBS by radio-HPLC; format: physicochemical; conditions: incubation at room temperature over 120 h in PBS (pH 7.4) or PBS with 3 mg/mL ascorbic acid
Description: Exemplary compounds of the present application were labeled with ^177Lu to evaluate stability of the compounds after radionuclide labeling. Briefly, 4 μL exemplary compounds in DMSO stock solution (2000 μM) and 2 mCi ^177Lu (ITM Isotope Technologies Munich) were mixed together in 0.5 M NaOAc buffer (20-50 μL, pH=4.5), followed by incubation at 95° C. for 15 min. Then the labeled complexes were subject to radio-TLC analysis (a polyamide film using methanol and 1M ammonium acetate as the mobile phase, v/v: 4:1, detected by Mini Scan) and radio-HPLC analysis (column: Shim-pack GIST 5 μm 4.6*150 mm; buffer A: 0.2% formic acid H2O; buffer B: 0.1% formic acid acetonitrile; flow rate: 1 mL/min; gradient: 0-5 min: 10% B to 95% B; then 5-8 min: 95% B).
After radionuclide labeling, the complexes were diluted to ˜1.5 mCi/0.30 mL by PBS (pH 7.4) or PBS with 3 mg/mL ascorbic acid (pH 7.4). Then the diluted samples were incubated at room temperature, followed by stability analysis via radio-HPLC at 0, 4, 24, 48, 72, 120 h of incubation, respectively. FIG. 1 illustrates stability analysis of a representative complex ^177Lu—I-7.

HT-29 tumor-bearing mice = assay: Biodistribution of radionuclide labeled complexes in HT-29 tumor-bearing mice; format: in vivo, BALB/c nude mice
Description: The BALB/c nude mice (Charles River, Beijing) were utilized to establish the xenografted model for biodistribution study. All animal care and experimental procedure were performed by following the animal protocols approved by the ethics committee of China Institute of Radiation Protection.
Briefly, each mouse was inoculated with approximately 4×10^6 ASPC-1 cells (human pancreatic cancer cell line) or HT-29 cells (human colorectal adenocarcinoma cell line) expressing human NTSR-1 by subcutaneous injection at rear flank. After inoculation, the xenografted tumors were allowed to grow for ˜2-4 weeks till the tumor weight reached to about 0.05 to 0.50 g (0.20 g in average).
Biodistribution studies were performed by administrating the radionuclide labeled test compound at a dose of ˜30-50 μCi (100 μL in 0.9% NaCl, ˜1.11-1.85 MBq, with specific activity 30-250 μCi/nmol) to each animal through tail vein injection.
At different time points after the administration, the mice treated with each compound were euthanized. The tissues and organs of the animals in each group were collected, excised, weighed, and analyzed in a PerkinElmer 2480 WIZARD2γ counter, and the percent injected dose (% ID) and % ID/g of each organ or tissue were calculated.

## COc1cccc(OC)c1-c1cc(C(=O)NC2(C(=O)O)C3CC4CC(C3)CC2C4)nn1-c1ccc(OCCCN(C)CCCN(C)C(=O)CN2CCN(CC(=O)[O-])CCN(CC(=O)[O-])CCN(CC(=O)[O-])CC2)cc1C(C)C.[177Lu+3] (centres unmarked) [^177Lu-I-7]
[1]
  clearance from other organs or tissues (SPECT/CT): rapid clearance
  retention in tumors (SPECT/CT): sustained retention in tumors
[2]
  stability of the labeled complex: remained stable and no significant degradation was detected
HT-29 tumor-bearing mice; Blood, 1 h
  % ID/g (1 h) Blood: 16.51 ± 0.56 % ID/g
HT-29 tumor-bearing mice; Blood, 4 h
  % ID/g (4 h) Blood: 2.85 ± 1.23 % ID/g
HT-29 tumor-bearing mice; Blood, 24 h
  % ID/g (24 h) Blood: 0.06 ± 0.02 % ID/g
HT-29 tumor-bearing mice; Blood, 72 h
  % ID/g (72 h) Blood: 0.03 ± 0 % ID/g
HT-29 tumor-bearing mice; Blood, 120 h
  % ID/g (120 h) Blood: 0.01 ± 0 % ID/g
HT-29 tumor-bearing mice; Femur, 1 h
  % ID/g (1 h) Femur: 1.95 ± 1.15 % ID/g
HT-29 tumor-bearing mice; Femur, 4 h
  % ID/g (4 h) Femur: 0.56 ± 0.23 % ID/g
HT-29 tumor-bearing mice; Femur, 24 h
  % ID/g (24 h) Femur: 0.11 ± 0.02 % ID/g
HT-29 tumor-bearing mice; Femur, 72 h
  % ID/g (72 h) Femur: 0.06 ± 0.03 % ID/g
HT-29 tumor-bearing mice; Femur, 120 h
  % ID/g (120 h) Femur: 0.07 ± 0.02 % ID/g
HT-29 tumor-bearing mice; Heart, 1 h
  % ID/g (1 h) Heart: 5.28 ± 0.74 % ID/g
HT-29 tumor-bearing mice; Heart, 4 h
  % ID/g (4 h) Heart: 1.31 ± 0.53 % ID/g
HT-29 tumor-bearing mice; Heart, 24 h
  % ID/g (24 h) Heart: 0.16 ± 0.01 % ID/g
HT-29 tumor-bearing mice; Heart, 72 h
  % ID/g (72 h) Heart: 0.11 ± 0.01 % ID/g
HT-29 tumor-bearing mice; Heart, 120 h
  % ID/g (120 h) Heart: 0.05 ± 0.03 % ID/g
HT-29 tumor-bearing mice; Intestine, 1 h
  % ID/g (1 h) Intestine: 2.84 ± 1.07 % ID/g
HT-29 tumor-bearing mice; Intestine, 4 h
  % ID/g (4 h) Intestine: 1.71 ± 0.23 % ID/g
HT-29 tumor-bearing mice; Intestine, 24 h
  % ID/g (24 h) Intestine: 0.66 ± 0.29 % ID/g
HT-29 tumor-bearing mice; Intestine, 72 h
  % ID/g (72 h) Intestine: 0.29 ± 0.23 % ID/g
HT-29 tumor-bearing mice; Intestine, 120 h
  % ID/g (120 h) Intestine: 0.19 ± 0.01 % ID/g
HT-29 tumor-bearing mice; Kidney, 1 h
  % ID/g (1 h) Kidney: 4.41 ± 2.41 % ID/g
HT-29 tumor-bearing mice; Kidney, 4 h
  % ID/g (4 h) Kidney: 1.73 ± 0.79 % ID/g
HT-29 tumor-bearing mice; Kidney, 24 h
  % ID/g (24 h) Kidney: 1.43 ± 1.04 % ID/g
HT-29 tumor-bearing mice; Kidney, 72 h
  % ID/g (72 h) Kidney: 0.7 ± 0.3 % ID/g
HT-29 tumor-bearing mice; Kidney, 120 h
  % ID/g (120 h) Kidney: 0.4 ± 0.15 % ID/g
HT-29 tumor-bearing mice; Liver, 1 h
  % ID/g (1 h) Liver: 4.35 ± 1.78 % ID/g
HT-29 tumor-bearing mice; Liver, 4 h
  % ID/g (4 h) Liver: 2.59 ± 1.08 % ID/g
HT-29 tumor-bearing mice; Liver, 24 h
  % ID/g (24 h) Liver: 0.85 ± 0.38 % ID/g
HT-29 tumor-bearing mice; Liver, 72 h
  % ID/g (72 h) Liver: 0.57 ± 0.21 % ID/g
HT-29 tumor-bearing mice; Liver, 120 h
  % ID/g (120 h) Liver: 0.24 ± 0.04 % ID/g
HT-29 tumor-bearing mice; Lung, 1 h
  % ID/g (1 h) Lung: 4.47 ± 3.31 % ID/g
HT-29 tumor-bearing mice; Lung, 4 h
  % ID/g (4 h) Lung: 1.81 ± 0.77 % ID/g
HT-29 tumor-bearing mice; Lung, 24 h
  % ID/g (24 h) Lung: 0.35 ± 0.14 % ID/g
HT-29 tumor-bearing mice; Lung, 72 h
  % ID/g (72 h) Lung: 0.23 ± 0.01 % ID/g
HT-29 tumor-bearing mice; Lung, 120 h
  % ID/g (120 h) Lung: 0.07 ± 0.02 % ID/g
HT-29 tumor-bearing mice; Muscle, 1 h
  % ID/g (1 h) Muscle: 2.2 ± 1.08 % ID/g
HT-29 tumor-bearing mice; Muscle, 4 h
  % ID/g (4 h) Muscle: 0.44 ± 0.26 % ID/g
HT-29 tumor-bearing mice; Muscle, 24 h
  % ID/g (24 h) Muscle: 0.05 ± 0.03 % ID/g
HT-29 tumor-bearing mice; Muscle, 72 h
  % ID/g (72 h) Muscle: 0.03 ± 0.01 % ID/g
HT-29 tumor-bearing mice; Muscle, 120 h
  % ID/g (120 h) Muscle: 0.04 ± 0.02 % ID/g
HT-29 tumor-bearing mice; Pancreas, 1 h
  % ID/g (1 h) Pancreas: 1.48 ± 0.29 % ID/g
HT-29 tumor-bearing mice; Pancreas, 4 h
  % ID/g (4 h) Pancreas: 0.38 ± 0.17 % ID/g
HT-29 tumor-bearing mice; Pancreas, 24 h
  % ID/g (24 h) Pancreas: 0.07 ± 0.04 % ID/g
HT-29 tumor-bearing mice; Pancreas, 72 h
  % ID/g (72 h) Pancreas: 0.03 ± 0.01 % ID/g
HT-29 tumor-bearing mice; Pancreas, 120 h
  % ID/g (120 h) Pancreas: 0.04 ± 0.01 % ID/g
HT-29 tumor-bearing mice; Spleen, 1 h
  % ID/g (1 h) Spleen: 1.73 ± 1.08 % ID/g
HT-29 tumor-bearing mice; Spleen, 4 h
  % ID/g (4 h) Spleen: 0.71 ± 0.41 % ID/g
HT-29 tumor-bearing mice; Spleen, 24 h
  % ID/g (24 h) Spleen: 0.14 ± 0.03 % ID/g
HT-29 tumor-bearing mice; Spleen, 72 h
  % ID/g (72 h) Spleen: 0.08 ± 0.01 % ID/g
HT-29 tumor-bearing mice; Spleen, 120 h
  % ID/g (120 h) Spleen: 0.1 ± 0.04 % ID/g
HT-29 tumor-bearing mice; Stomach, 1 h
  % ID/g (1 h) Stomach: 2.58 ± 1.00 % ID/g
HT-29 tumor-bearing mice; Stomach, 4 h
  % ID/g (4 h) Stomach: 0.76 ± 0.38 % ID/g
HT-29 tumor-bearing mice; Stomach, 24 h
  % ID/g (24 h) Stomach: 0.14 ± 0.03 % ID/g
